Test: xn = mol fraction of the nth substance listed
Conditions: Gas, Buoyancy - hydrostatic balance with magnetic suspension - one sinker

C=C(F)C(F)(F)F [2,3,3,3-tetrafluoro-1-propene] + FCF
Conditions | mass density [kg/m3]
279.8 K, 225 kPa, x1 = 0.202 | 6.518
279.81 K, 366 kPa, x1 = 0.202 | 10.881
279.82 K, 422 kPa, x1 = 0.61 | 18.046
279.82 K, 531 kPa, x1 = 0.202 | 16.362
279.99 K, 139 kPa, x1 = 0.61 | 5.52
280 K, 292 kPa, x1 = 0.61 | 12.065
289.13 K, 223 kPa, x1 = 0.202 | 6.201
289.13 K, 326 kPa, x1 = 0.202 | 9.243
289.13 K, 498 kPa, x1 = 0.202 | 14.57
289.14 K, 652 kPa, x1 = 0.202 | 19.613
289.24 K, 435 kPa, x1 = 0.61 | 17.849
289.25 K, 300 kPa, x1 = 0.61 | 11.915
289.27 K, 142 kPa, x1 = 0.61 | 5.456
289.35 K, 825 kPa, x1 = 0.062 | 21.899
289.47 K, 272 kPa, x1 = 0.062 | 6.547
289.52 K, 465 kPa, x1 = 0.062 | 11.568
298.56 K, 1030 kPa, x1 = 0.062 | 27.002
298.65 K, 448 kPa, x1 = 0.61 | 17.642
298.65 K, 795 kPa, x1 = 0.062 | 19.996
298.67 K, 524 kPa, x1 = 0.062 | 12.632
298.68 K, 146 kPa, x1 = 0.61 | 5.4
298.68 K, 314 kPa, x1 = 0.062 | 7.355
298.7 K, 309 kPa, x1 = 0.61 | 11.815
298.95 K, 208 kPa, x1 = 0.366 | 6.462
298.96 K, 416 kPa, x1 = 0.366 | 13.396
298.97 K, 629 kPa, x1 = 0.366 | 21.025
299.11 K, 197 kPa, x1 = 0.202 | 5.25
299.11 K, 460 kPa, x1 = 0.202 | 12.798
299.11 K, 653 kPa, x1 = 0.202 | 18.744
299.11 K, 817 kPa, x1 = 0.202 | 24.131
308.21 K, 285 kPa, x1 = 0.062 | 6.408
308.21 K, 465 kPa, x1 = 0.062 | 10.702
308.21 K, 692 kPa, x1 = 0.062 | 16.408
308.21 K, 839 kPa, x1 = 0.062 | 20.316
308.21 K, 1102 kPa, x1 = 0.062 | 27.74
308.23 K, 1301 kPa, x1 = 0.062 | 33.802
308.29 K, 170 kPa, x1 = 0.61 | 6.134
308.3 K, 340 kPa, x1 = 0.61 | 12.602
308.32 K, 577 kPa, x1 = 0.61 | 22.346
308.33 K, 769 kPa, x1 = 0.61 | 30.942
308.47 K, 201 kPa, x1 = 0.366 | 6.029
308.47 K, 387 kPa, x1 = 0.366 | 11.937
308.47 K, 560 kPa, x1 = 0.366 | 17.726
308.47 K, 794 kPa, x1 = 0.366 | 26.137
308.69 K, 226 kPa, x1 = 0.202 | 5.868
308.69 K, 390 kPa, x1 = 0.202 | 10.341
308.69 K, 569 kPa, x1 = 0.202 | 15.462
308.7 K, 735 kPa, x1 = 0.202 | 20.457
308.7 K, 1050 kPa, x1 = 0.202 | 30.682
317.75 K, 163 kPa, x1 = 0.062 | 3.497
317.75 K, 406 kPa, x1 = 0.062 | 8.95
317.75 K, 648 kPa, x1 = 0.062 | 14.699
317.75 K, 910 kPa, x1 = 0.062 | 21.311
317.75 K, 1331 kPa, x1 = 0.062 | 32.968
317.78 K, 1625 kPa, x1 = 0.062 | 42.032
317.89 K, 139 kPa, x1 = 0.61 | 4.816
317.89 K, 309 kPa, x1 = 0.61 | 11.009
317.9 K, 527 kPa, x1 = 0.61 | 19.436
317.92 K, 735 kPa, x1 = 0.61 | 28.033
317.92 K, 929 kPa, x1 = 0.61 | 36.73
318.29 K, 219 kPa, x1 = 0.202 | 5.48
318.29 K, 398 kPa, x1 = 0.202 | 10.192
318.29 K, 586 kPa, x1 = 0.202 | 15.349
318.29 K, 790 kPa, x1 = 0.202 | 21.254
318.29 K, 1058 kPa, x1 = 0.202 | 29.49
318.3 K, 1336 kPa, x1 = 0.202 | 38.819
318.53 K, 165 kPa, x1 = 0.366 | 4.746
318.53 K, 351 kPa, x1 = 0.366 | 10.354
318.53 K, 563 kPa, x1 = 0.366 | 17.123
318.53 K, 766 kPa, x1 = 0.366 | 23.969
318.53 K, 1009 kPa, x1 = 0.366 | 32.745
327.52 K, 157 kPa, x1 = 0.61 | 5.289
327.52 K, 329 kPa, x1 = 0.61 | 11.37
327.52 K, 536 kPa, x1 = 0.61 | 19.029
327.53 K, 930 kPa, x1 = 0.61 | 35.068
327.54 K, 1122 kPa, x1 = 0.61 | 43.758
